Test results from patent publication US9889146B2, “Benzoxaborole compounds and uses thereof” (priority 2012, dated 2018).
Values after ≈ are worked out from the molar mass of the structure shown. Read-outs that look alike come from different tables or passages of the source.

Tests used:
[1] = test system: Enterobacter cloacae (AmpC); test: microbe, parasite or virus in culture; assay type: cell-based; conditions: Enterobacter cloacae
S. marcescens (AmpC) = test: microbe, parasite or virus in culture; assay type: cell-based; conditions: Serratia marcescens
Proteus vulgaris (WT) = test: microbe, parasite or virus in culture; assay type: cell-based; conditions: Proteus vulgaris (WT), 41 isolates; read-out: MIC90
Proteus mirabilis (WT) = test: microbe, parasite or virus in culture; assay type: cell-based; conditions: Proteus mirabilis (WT), 235 isolates; read-out: MIC90
Enterobacteriaceae = test: organism not typed; assay type: cell-based; conditions: Enterobacteriaceae, 2029 isolates; read-out: MIC90
Klebsiella spp. (KPC) = test: microbe, parasite or virus in culture; assay type: cell-based; conditions: Klebsiella
K. pneumoniae = conditions: up regulation of an AcrAB efflux pump; Ruzin et al. AAC 2005; cited from earlier work
Klebsiella spp. (WT) = test: microbe, parasite or virus in culture; assay type: cell-based; conditions: Klebsiella spp. (WT), 159 isolates; read-out: MIC90
Providencia spp.(all) = test: microbe, parasite or virus in culture; assay type: cell-based; conditions: Providencia spp.(all), 68 isolates; read-out: MIC90
[2] = test system: Citrobacter freundii (AmpC); test: microbe, parasite or virus in culture; assay type: cell-based; conditions: Citrobacter freundii
[3] = test system: Enterobacter aerogenes (AmpC); test: microbe, parasite or virus in culture; assay type: cell-based; conditions: Klebsiella aerogenes
[4] = test system: Morganella morganii (AmpC); test: microbe, parasite or virus in culture; assay type: cell-based; conditions: Morganella morganii
[5] = test system: Enterobacter aerogenes (WT); test: microbe, parasite or virus in culture; assay type: cell-based; conditions: Klebsiella aerogenes; Enterobacter aerogenes (WT), 199 isolates; read-out: MIC90
[6] = test system: Enterobacter cloacae (WT); test: microbe, parasite or virus in culture; assay type: cell-based; conditions: 202 isolates, read-out: MIC90
Klebsiella spp. (ESBL) = test: microbe, parasite or virus in culture; assay type: cell-based; conditions: Klebsiella
E. coli (WT) = test: microbe, parasite or virus in culture; assay type: cell-based; conditions: Escherichia coli; E. coli (WT), 214 isolates; read-out: MIC90
E. coli (ESBL) = test: microbe, parasite or virus in culture; assay type: cell-based; conditions: Escherichia coli
P. aeruginosa = test: In vitro activity against P. aeruginosa clinical isolates; assay type: cell-based; conditions: P. aeruginosa, 2,008 clinical isolates; GSK2251052 based on potential susceptible breakpoint of ≦4 μg/mL
Experimental: GSK2251052 was tested for activity against P. aeruginosa, and its activity was compared to other antibiotics of known activity. The results are shown below in Tables 2a and 2b. Of 2,008 clinical isolates tested (from 2009-2010 subjects, of which 40% were from North America) greater than 90% were susceptible to GSK2251052 based on a potential susceptible breakpoint of ≦4 μg/mL.

K. pneumoniae ATCC 13883 = test: Spontaneous frequency of resistance; assay type: cell-based; conditions: 24 h
Experimental: (§1) Spontaneous Resistance Frequency was determined in vitro for GSK2251052 and the resistance mutants in E. coli ATCC 25922, K. pneumoniae ATCC 13883, and P. aeruginosa ATCC 27853 strains were characterized. GSK2251052 was prepared as described in U.S. Pat. No. 7,816,344 (the entire contents of which are hereby incorporated by reference herein). LB broth, Mueller Hinton II broth (adjusted), and Difco noble agar were obtained from Becton Dickinson (Cockeysville, Md., USA). M9 minimal broth containing 1×M9 salt, 0.5 μg/ML thiamine, 1 mM MgSO4, 0.1 mM CaCl2, 2% glucose, was obtained from Teknova (Hollister, Calif., USA). Antibacterial agents ciprofloxacin, ceftazidime, chloramphenicol, gentamycin, kanamycin, polymixin B, tobramycin and trimethoprim, and amino acids were obtained from Sigma Chemicals (St. Louis, Mo., USA). Strains were obtained from ATCC (Manassas, Va., USA).
(§2) Selection of resistance to GSK2251052 was attempted by spreading various amounts of bacteria onto MHBII noble agar plates containing 4×MIC (minimum inhibitory concentration) or 10×MIC of GSK2251052. Colonies were counted after 24 hours and 48 hours incubation at 37° C. The resistance of these colonies was confirmed by their ability to grow on plates containing GSK2251052 at either 4× or 10×MIC. Frequency of resistance was determined by dividing the number of resistant mutants by the total number of cells plated as determined by plating dilutions of the overnight culture on LB plates.

E. coli ATCC 25922 = test: Spontaneous frequency of resistance; assay type: cell-based; conditions: 24 h
Experimental: as §1, §2

P. aeruginosa ATCC 27853 = test: Spontaneous frequency of resistance; assay type: cell-based; conditions: 24 h
Experimental: as §1, §2

[7] = test system: E. coli ATCC 25922, K. pneumoniae ATCC 13883 and P. aeruginosa ATCC 27853; test: MIC, three strains and their mutants summarised; assay type: cell-based; conditions: MIC in E. coli, P. aeruginosa and K. pneumoniae mutants versus wild-type
Experimental: as §1
Susceptibility tests were performed following the recommendations for aerobic bacteria (M7-A7) from the Clinical and Laboratories Standards Institute (CLSI).
Laboratory generated mutants resistant to GSK2251052 contain mutations in the editing domain of LeuRS. Six to ten GSK2251052 resistant colonies of E. coli ATCC 25922, K. pneumoniae ATCC 13883 and P. aeruginosa ATCC 27853 were selected for further analysis and their MICs to GSK2251052 were determined (Table 4-7).
GSK2251052 resistant mutants were not cross-resistant to commercial antibiotics.

[8] = test system: E. coli ATCC 25922 wild type and mutants; test: MIC, wild type and GSK2251052 resistant mutants; assay type: cell-based; conditions: Escherichia coli
Procedure, shortened: (§3)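 MICs were determined following CLSI M7-A7 recommendations for aerobic bacteria. Strains were E. coli ATCC 25922, K. pneumoniae ATCC 13883, P. aeruginosa ATCC 27853 and six to ten laboratory-selected GSK2251052-resistant colonies of each, carrying mutations in the LeuRS editing domain.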

[9] = test system: P. aeruginosa ATCC 27853 wild type and mutants; test: MIC, wild type and GSK2251052 resistant mutants; assay type: cell-based; conditions: Pseudomonas aeruginosa
Procedure, shortened: as §3

[10] = test system: K. pneumoniae ATCC 13883 wild type and mutants; test: MIC, wild type and GSK2251052 resistant mutants; assay type: cell-based; conditions: Klebsiella pneumoniae
Procedure, shortened: as §3

## CN(C)c1cc(NC(=O)CNC(C)(C)C)c(O)c2c1C[C@H]1C[C@H]3[C@H](N(C)C)C(O)=C(C(N)=O)C(=O)[C@@]3(O)C(O)=C1C2=O [Tigecycline]
[1]
  MIC90: 4 µg/mL (≈ 6.83 µM)
S. marcescens (AmpC)
  MIC90: 2 µg/mL (≈ 3.41 µM)
Proteus vulgaris (WT)
  MIC90: 2 µg/mL (≈ 3.41 µM)
Proteus mirabilis (WT)
  MIC90: 4 µg/mL (≈ 6.83 µM)
Enterobacteriaceae
  MIC90: 2 µg/mL (≈ 3.41 µM)
Klebsiella spp. (KPC)
  MIC90: 2 µg/mL (≈ 3.41 µM)
K. pneumoniae
  phenotype of resistant mutants: multidrug-resistant
Klebsiella spp. (WT)
  MIC90: 1 µg/mL (≈ 1.71 µM)
Providencia spp.(all)
  MIC90: 4 µg/mL (≈ 6.83 µM)
[2]
  MIC90: 2 µg/mL (≈ 3.41 µM)
[3]
  MIC90: 2 µg/mL (≈ 3.41 µM)
[4]
  MIC90: 4 µg/mL (≈ 6.83 µM)
[5]
  MIC90: 0.5 µg/mL (≈ 0.854 µM)
[6]
  MIC90: 0.5 µg/mL (≈ 0.854 µM)
Klebsiella spp. (ESBL)
  MIC90: 2 µg/mL (≈ 3.41 µM)
E. coli (WT)
  MIC90: 0.25 µg/mL (≈ 0.427 µM)
E. coli (ESBL)
  MIC90: 0.5 µg/mL (≈ 0.854 µM)

## CC(C)(O/N=C(\C(=O)N[C@@H]1C(=O)N2C(C(=O)[O-])=C(C[n+]3ccccc3)CS[C@H]12)c1csc(N)n1)C(=O)O [Ceftazidime]
[1]
  MIC90: > 16 µg/mL
S. marcescens (AmpC)
  MIC90: > 16 µg/mL
Proteus vulgaris (WT)
  MIC90: ≤ 1 µg/mL
P. aeruginosa
  % susceptible: 66.4%
K. pneumoniae ATCC 13883; 4 X MIC
  Frequency of Resistance: 1 × 10^−8
K. pneumoniae ATCC 13883; 10 X MIC
  Frequency of Resistance: <4 × 10^−9
E. coli ATCC 25922; 4 X MIC
  Frequency of Resistance: <3 × 10^−9
E. coli ATCC 25922; 10 X MIC
  Frequency of Resistance: <3 × 10^−9
P. aeruginosa ATCC 27853; 4 X MIC
  Frequency of Resistance: 2 × 10^−7
P. aeruginosa ATCC 27853; 10 X MIC
  Frequency of Resistance: 2 × 10^−8
Proteus mirabilis (WT)
  MIC90: ≤ 1 µg/mL
Enterobacteriaceae
  MIC90: > 16 µg/mL
Klebsiella spp. (KPC)
  MIC90: > 16 µg/mL
Klebsiella spp. (WT)
  MIC90: ≤ 1 µg/mL
Providencia spp.(all)
  MIC90: 8 µg/mL (≈ 14.6 µM)
[2]
  MIC90: > 16 µg/mL
[3]
  MIC90: > 16 µg/mL
[7]
  cross-resistance of GSK2251052 resistant mutants: did not have any significant difference in MIC values than wild-type
[4]
  MIC90: > 16 µg/mL
[5]
  MIC90: ≤ 1 µg/mL
[6]
  MIC90: ≤ 1 µg/mL
Klebsiella spp. (ESBL)
  MIC90: > 16 µg/mL
[8]; ATCC25922, E wt, read-out: MICs
  MIC: 0.5 µg/mL (≈ 0.915 µM)
[8]; ATCC25922, read-out: MICs, mutant E 101
  MIC: 0.5 µg/mL (≈ 0.915 µM)
[8]; ATCC25922, read-out: MICs, mutant E 102
  MIC: 0.5 µg/mL (≈ 0.915 µM)
[8]; ATCC25922, read-out: MICs, mutant E 107
  MIC: 0.5 µg/mL (≈ 0.915 µM)
[9]; ATCC27853, P wt., read-out: MICs
  MIC: 2 µg/mL (≈ 3.66 µM)
[9]; ATCC27853, read-out: MICs, mutant P 101
  MIC: 4 µg/mL (≈ 7.32 µM)
[9]; ATCC27853, read-out: MICs, mutant P106
  MIC: 2 µg/mL (≈ 3.66 µM)
[9]; ATCC27853, read-out: MICs, mutant P108
  MIC: 2 µg/mL (≈ 3.66 µM)
[10]; ATCC13883, K wt., read-out: MICs
  MIC: 0.5 µg/mL (≈ 0.915 µM)
[10]; ATCC13883, read-out: MICs, mutant K 104
  MIC: 0.5 µg/mL (≈ 0.915 µM)
[10]; ATCC13883, read-out: MICs, mutant K 105
  MIC: 0.5 µg/mL (≈ 0.915 µM)
[10]; ATCC13883, read-out: MICs, mutant K 107
  MIC: 0.5 µg/mL (≈ 0.915 µM)
[10]; ATCC13883, read-out: MICs, mutant K 108
  MIC: 1 µg/mL (≈ 1.83 µM)
[10]; ATCC13883, read-out: MICs, mutant K 110
  MIC: 0.5 µg/mL (≈ 0.915 µM)
E. coli (WT)
  MIC90: ≤ 1 µg/mL
E. coli (ESBL)
  MIC90: > 16 µg/mL
